In the NIST ThermoML archive (doi:10.1016/j.jct.2015.02.001):
Several values for one entry are separate records, joined by “and”; a condition that tells them apart may be missing. Identical values can stand only once. ± gives the expanded uncertainty stated by the source.

Details: Liquid, Transpiration method

Structure (SMILES): COc1cccc(C)c1 [1-methoxy-3-methylbenzene]
- vapor or sublimation pressure (276.7 K): 0.0285 ± 0.0018 kPa
- vapor or sublimation pressure (277.8 K): 0.0314 ± 0.002 kPa
- vapor or sublimation pressure (280.6 K): 0.0395 ± 0.0025 kPa
- vapor or sublimation pressure (284.7 K): 0.0541 ± 0.0035 kPa
- vapor or sublimation pressure (289.4 K): 0.0804 ± 0.005 kPa
- vapor or sublimation pressure (291.9 K): 0.094 ± 0.006 kPa
- vapor or sublimation pressure (297.7 K): 0.1433 ± 0.009 kPa
- vapor or sublimation pressure (301.1 K): 0.1806 ± 0.011 kPa
- vapor or sublimation pressure (304.1 K): 0.2286 ± 0.014 kPa
- vapor or sublimation pressure (305 K): 0.2433 ± 0.015 kPa
- vapor or sublimation pressure (308 K): 0.3006 ± 0.019 kPa
- vapor or sublimation pressure (310 K): 0.3363 ± 0.021 kPa
- vapor or sublimation pressure (312.2 K): 0.4058 ± 0.026 kPa

Structure (SMILES): COc1ccc(C)cc1 [1-methoxy-4-methylbenzene]
- vapor or sublimation pressure (275.2 K): 0.0275 ± 0.0018 kPa
- vapor or sublimation pressure (276.4 K): 0.031 ± 0.002 kPa
- vapor or sublimation pressure (277.2 K): 0.0326 ± 0.0021 kPa
- vapor or sublimation pressure (278.8 K): 0.0379 ± 0.0025 kPa
- vapor or sublimation pressure (281.7 K): 0.0478 ± 0.003 kPa
- vapor or sublimation pressure (284.8 K): 0.0612 ± 0.004 kPa
- vapor or sublimation pressure (287.5 K): 0.0759 ± 0.0048 kPa
- vapor or sublimation pressure (289.2 K): 0.0861 ± 0.0055 kPa
- vapor or sublimation pressure (290.4 K): 0.095 ± 0.006 kPa
- vapor or sublimation pressure (291.2 K): 0.0997 ± 0.0064 kPa
- vapor or sublimation pressure (291.3 K): 0.1015 ± 0.0065 kPa
- vapor or sublimation pressure (294.2 K): 0.1267 ± 0.008 kPa
- vapor or sublimation pressure (296.2 K): 0.1436 ± 0.009 kPa
- vapor or sublimation pressure (297.1 K): 0.1563 ± 0.0099 kPa
- vapor or sublimation pressure (299.2 K): 0.1817 ± 0.011 kPa
- vapor or sublimation pressure (300.1 K): 0.1942 ± 0.012 kPa and 0.2003 ± 0.013 kPa
- vapor or sublimation pressure (301.1 K): 0.2085 ± 0.013 kPa
- vapor or sublimation pressure (303.1 K): 0.2465 ± 0.016 kPa
- vapor or sublimation pressure (305 K): 0.2782 ± 0.018 kPa
- vapor or sublimation pressure (308 K): 0.3386 ± 0.021 kPa

Structure (SMILES): COc1ccccc1C [1-methoxy-2-methylbenzene]
- vapor or sublimation pressure (275.8 K): 0.035 ± 0.0023 kPa
- vapor or sublimation pressure (277.7 K): 0.0405 ± 0.0025 kPa
- vapor or sublimation pressure (278.7 K): 0.0432 ± 0.0028 kPa
- vapor or sublimation pressure (280.6 K): 0.0504 ± 0.0033 kPa
- vapor or sublimation pressure (282.6 K): 0.0599 ± 0.0038 kPa
- vapor or sublimation pressure (285.7 K): 0.0735 ± 0.0047 kPa
- vapor or sublimation pressure (286.8 K): 0.0821 ± 0.0053 kPa
- vapor or sublimation pressure (290.2 K): 0.1038 ± 0.0065 kPa
- vapor or sublimation pressure (293.4 K): 0.1308 ± 0.0083 kPa
- vapor or sublimation pressure (296.2 K): 0.1606 ± 0.01 kPa
- vapor or sublimation pressure (298.2 K): 0.1819 ± 0.011 kPa
- vapor or sublimation pressure (300.2 K): 0.2111 ± 0.013 kPa and 0.2117 ± 0.013 kPa
- vapor or sublimation pressure (303.3 K): 0.2601 ± 0.016 kPa
- vapor or sublimation pressure (305.1 K): 0.2865 ± 0.018 kPa
- vapor or sublimation pressure (308 K): 0.3491 ± 0.022 kPa
